Test results from paper PMC7927014, “Novel Small Molecule Hsp90/Cdc37 Interface Inhibitors Indirectly Target K-Ras-Signaling” (Cancers, 2021).

Experiments:
[1] = biological target: T1, Hsp90/Cdc37 (Homo sapiens, UniProt P07900); assay: Hsp90/Cdc37 split Renilla luciferase assay, full length Hsp90 (cell lysate; IC50 and 20 μM validation); format: biochemical; settings: for normalized RLU / Average RLU: MolPort Screening-3, tested concentration of drugs 20 μM; for normalized RLU: RLU normalized to DMSO (=1.00); for Average RLU: average of 3 wells (DMSO 248028); for IC50: full length Hsp90, split Renilla luciferase assay, cell lysate
T1 construct: The Hsp90/Cdc37 split Renilla luciferase assay using the full length Hsp90 for the compound screening was described previously; expressed in transfected cells; host or cells: HEK293 EBNA cells, cleared lysates
Protocol: In the second in silico screening of the FIMM database, we employed the four identified chemical scaffolds (Figure S2B) for the visual inspection of the FIMM compound library. […] All of the purchased compounds were validated in vitro at 20 μM using the split Renilla luciferase assay.
(§1) The Hsp90/Cdc37 split Renilla luciferase assay using the full length Hsp90 for the compound screening was described previously. […] After 48 h, the cells were trypsinized and washed with PBS. The harvested cells were lysed in 1 mL of the 1x lysis buffer provided in the Renilla Luciferase Reporter Assay System Kit from Promega (cat. E2820), and were incubated on ice for 10 min. The cell lysates were then cleared by centrifugation at 13,000× g for 1 min. […] After this, the screening/test compounds or DMSO—as indicated—were added to each well. In total, 5 µL NRL-Hsp90- or NRL-N-Hsp90-lysate was added to each well, one row at a time. Subsequently, the plate was incubated for 5 min at room temperature (RT). […] Just before the reading, 20 µL assay buffer containing 2× Renilla luciferase substrate (coelenterazine) was added. For the FIMM screening, sample wells were read on a PHERAstar plate reader (BMG LABTECH) at a gain level of 4000, after 10 s shaking, using a hypomorph of NRL-Hsp90. For the subsequent validations of the compounds, sample wells with the above-described assay constructs were read using a synergy H1 Hybrid Multi-Mode reader (BioTek) in the luminescence detection mode, as described previously in detail.

[2] = system: Hsp90 clients (C-Raf, Akt, ERK); assay: Western blotting of Hsp90 client proteins; format: cell-based; settings: Western blot, 24 h; SK-BR-3, MDA-MB-231, MIA PaCa-2, HCC-44 (conglobatin A: MDA-MB-231)
Protocol: The cells were trypsinized, washed with PBS, and lysed in RIPA buffer (cat no. 89900, ThermoFisher Scientific) containing protease and phosphatase inhibitors (cat. no. A32959, ThermoFisher Scientific) and 1 mM phenylmethylsulfonyl fluoride (PMSF). The cells in the RIPA buffer were placed on ice for 20 min, and were then sonicated in ice cold water for 5 min. The lysates were centrifuged at 4 °C, and their protein was quantified using a BCA kit (cat. no. 23225, ThermoFisher Scientific). Equal amounts of protein were separated by 10% SDS-PAGE, and were then transferred onto a nitrocellulose membrane (cat. no. NBA 083C001EA, Protran) using a wet transfer system (Bio-Rad) or semidry Transferblot Turbo Transfer System (Bio-Rad). After the transfer, the membranes were blocked for 30 min in 5% skimmed milk dissolved in 1× TBST, and then incubated with 1:2000 primary antibodies in 5% BSA in TBST at 4 °C overnight.
The primary antibodies against HER-2 (cat no. MA5-140579) and Hsp70 (cat. no. MA3-006) were purchased from ThermoFisher Scientific; C-Raf (cat. no. sc-133); the galectin-3 (cat. no. sc-20157), Hsp90 (cat. no. sc-69703), Cdc37 (cat. no. sc-13129) were obtained from Santa Cruz Biotechnology; the Akt (cat. no. 9272S), ERK1/2 (cat. no. 9102S), and pERK1/2 (cat. no. 9101S) were obtained from Cell Signaling Technology; the HIF-1α (cat. no. NB-100-134) was obtained from Novus Biologicals; and the β-actin (cat. no. A1978) was obtained from Sigma-Aldrich.
The next day, the membranes were washed three times in TBST for 10 min, and then incubated with secondary antibodies (1:5000) diluted in 5% skimmed milk in TBST for 1 h at RT. As secondary antibodies, we employed HRP-conjugated anti-mouse (cat. no. sc-2954, Santa Cruz Biotechnology) and anti-rabbit antibodies (cat. no. HAF008, R&D System). The protein bands were detected with a ChemiDoc MP instrument (Bio-Rad) after treatment with an ECL reagent (cat. no. 170-5061, BioRad). All of the antigens and molecular weights in kDa are labelled next to the blots on the figures. Uncropped Western blot data are attached as Figure S6.

[3] = biological target: T2, N-Hsp90/Cdc37 (Homo sapiens, UniProt P07900); assay: N-Hsp90/Cdc37 split Renilla luciferase assay (N-terminal Hsp90 fragment, residues 1-223); format: biochemical; settings: cell lysate
T2 construct: only the N-terminal ATP-ase domain of Hsp90 (N-Hsp90, residues 1-223); expressed in transfected cells; host or cells: HEK293 EBNA cells, cleared lysates
Protocol: as §1

[4] = system: K-RasG12V nanoclustering; assay: K-RasG12V nanoclustering-FRET (FLIM-FRET) in HEK cells; format: cell-based; settings: 24 h, conglobatin A 2 μM, salinomycin 1.3 μM, 17-AAG 2 μM, CAY10585 10 μM, hit compounds indicated concentrations
Protocol: In total, 80,000 HEK cells were seeded in 12-well plates containing sterilized 16-mm coverslips and 1 mL medium. The next day, the cells were transfected using jetPRIME or FuGENE HD transfection reagent. For the donor fluorophore-only samples, the cells were transfected with 500 ng mGFP-tagged RasG12V plasmid. For the nanoclustering-FRET pair samples, the cells were transfected with both the donor and acceptor constructs, i.e., pmGFP- and pmCherry- RasG12V at a plasmid ratio of 1:3, respectively, and a total of 800 ng plasmids. The next day, the cells were treated with either 0.1% DMSO vehicle control or the indicated concentrations of compounds diluted in DMEM or RPMI medium for 24 h. For the gene silencing studies, the cells were transfected with the indicated amounts of siRNAs, together with the FRET pair constructs. The plasmids and siRNA were diluted in the same jetPRIME transfection buffer, followed by the addition of jetPRIME. […] The lifetime of the mGFP donor fluorophore was measured using a fluorescence microscope (Zeiss AXIO Observer D1) equipped with a fluorescence lifetime imaging attachment (Lambert Instruments), as described previously in detail. The apparent FRET efficiency (Eapp) was calculated as Eapp = (1 − τDA/τD) × 100%, with the measured fluorescence lifetimes τDA of the FRET sample and the τD of the donor-only sample.

[5] = system: MDA-MB-231 cells; assay: 2D cell proliferation (alamarBlue); format: cell-based; settings: Homo sapiens, MDA-MB-231, 72 h
Protocol: Per well, 500–700 cells were seeded in 96-well flat bottom culture plates in 100 µL. After 24 h, the cells were treated with 0.1% DMSO vehicle control or test compounds diluted in a medium using a 1:2 dilution-series, starting at 100 µM. The plates were further incubated for 72 h. The cell viability was measured after the addition of 10% alamarBlue reagent per well (cat. no. DAL1100, Thermo Fisher Scientific). The fluorescence intensity (excitation 560 nm and emission 590 nm) was measured after 4 h by the use of a H1 Hybrid Multi-Mode reader.

## C/C1=C\[C@H](C)C[C@H](C)[C@H](Cc2cnco2)OC(=O)/C(C)=C/[C@H](C)C[C@H](C)[C@H](Cc2cnco2)OC1=O [conglobatin A, reference compound]
[1]
  normalized RLU: 0.40
  Average RLU: 98821 RLU
  IC50: 23 ± 6 µM
[2]
  expression of Hsp90 clients (C-Raf, Akt, ERK; pERK): decreased pERK and Akt levels
[3]
  IC50: 4.5 ± 0.8 µM
[4]
  K-RasG12V nanoclustering-FRET: selective inhibition of K-RasG12V-
[5]
  IC50: 32 ± 2 µM

## N=C(CSS(=O)(=O)O)NCC12CC3CC(CC(C3)C1)C2 [×6506, [({N-[(adamantan-1-yl)methyl]carbamimidoyl}methyl)sulfanyl]sulfonic acid]
[1]
  normalized RLU: 0.11
  Average RLU: 26657 RLU
  IC50: 5 ± 1 µM
[2]
  expression of Hsp90 clients (C-Raf, Akt, ERK; pERK): dose-dependently decreased
[3]
  IC50: 4.1 ± 0.4 µM
[4]
  K-RasG12V nanoclustering-FRET: displayed K-Ras-selectivity
[5]
  IC50: 32.6 ± 0.5 µM

## CCOc1ccc(C(=O)c2ccc(O)c(O)c2O)cc1 [×1540, 2,3,4-TRIHYDROXY-4'-ETHOXYBENZOPHENONE]
[1]
  IC50: 44 ± 18 µM
[2]
  expression of Hsp90 clients (C-Raf, Akt, ERK; pERK): dose-dependently decreased
[3]
  IC50: 44 ± 9 µM
[4]
  K-RasG12V nanoclustering-FRET: displayed K-Ras-selectivity
[5]
  IC50: 29 ± 3 µM
